# From patent US20050008558A1, “Fullerene derivatives and processes for producing the same” (Eiichi NAKAMURA, priority 2003, published 2005)
# Assays:
# [1] = Solubility in organic solvents at 25° C.
# [2] = Oxidation test: toluene solutions allowed to stand in air at room temperature, HPLC peak area ratio; format: physicochemical; conditions: for Peak area ratio (%) of starting compound to whole peak area: toluene solution 0.33 mg/mL, in air, HPLC UV 290 nm, time 0 day (initial); for Change in peak area ratio on preservation as a solution (in words): long period of time
# Text: The stability in air of the fullerene derivatives of the present invention may be confirmed, for example, by analyzing the change in quality thereof with time by HPLC. More specifically, the stability in air can be determined as follows. That is, a toluene solution of the fullerene derivatives of the present invention which is allowed to stand in air at room temperature, is subjected to HPLC using an octadecyl-bonded silica gel column (hereinafter referred to merely as “ODS” column), an eluent composed of toluene and methanol and a UV wavelength of 290 nm to measure the rate of reduction in area ratio of a peak attributed to the fullerene derivatives to whole peaks as observed. Concretely, it can be evaluated by the stability in air of solution of fullerene derivative according to the present invention to the solution of same fullerene derivative to the present one except for having a hydrogen atom on cyclopentadiene ring of fullerene skeleton, for example, a C60Ph5CH3 solution to a C60Ph5H solution (Ph represents a phenyl group). For example, the rate of reduction in peak area ratio of the fullerene derivatives according to the present invention is usually 1/20 or lower, preferably 1/100 or lower than that of the case where one having a hydrogen atom on cyclopentadiene ring, namely C60Ph5H, is used under the same conditions.
# 90 mL of a toluene solution of C60Ph5H (0.33 mg/mL) and 90 mL of a toluene solution of C60Ph5Me obtained in Example 10 (0.33 mg/mL) were respectively prepared and allowed to stand in air at room temperature. The prepared solutions were sampled in an amount of 0.5 mL for each every several days, and subjected to HPLC analysis to examine the change in quality thereof with time. The HPLC analysis conditions were ODS; column size: 150 mm×4.6 mmφ; eluent: toluene/methanol=4/6; flow rate: 1.0 mL/min; detector used: UV 290 nm.
# [3] = toluene solution in air, time 1 day
# [4] = toluene solution in air, time 2 days
# [5] = toluene solution in air, time 6 days
# [6] = toluene solution in air, time 8 days
# [7] = toluene solution in air, time 9 days
# [8] = toluene solution in air, time 14 days
# [9] = toluene solution in air, time 15 days
# [10] = toluene solution in air, time 16 days
# [11] = toluene solution in air, time 20 days
# [12] = toluene solution in air, time 22 days
# [13] = toluene solution in air, time 23 days
# [14] = toluene solution in air, time 63 days
Peak area ratio (%) of starting compound to whole peak area [2] [%],"Peak area ratio (%) [2, 3] [%]","Peak area ratio (%) [2, 4] [%]","Peak area ratio (%) [2, 5] [%]","Peak area ratio (%) [2, 6] [%]","Peak area ratio (%) [2, 7] [%]","Peak area ratio (%) [2, 8] [%]","Peak area ratio (%) [2, 9] [%]","Peak area ratio (%) [2, 10] [%]","Peak area ratio (%) [2, 11] [%]","Peak area ratio (%) [2, 12] [%]","Peak area ratio (%) [2, 13] [%]","Peak area ratio (%) [2, 14] [%]",SMILES,Change in peak area ratio on preservation as a solution (in words) ([2]; toluene solution in air),other results
–,–,–,–,–,–,–,–,–,–,–,–,–,"CCOC(=O)CCCC12C3=C4C5=C1C1(C)c6c7c8c9c(c%10c%11c%12c(c%13c%14c%15c(c%16c%17c%18c(c1c1c6c6c8c8c%19c9c%11c9c%11c%12c%14c%12c%14c%15c%17c%15c%17c%18c1c1c6c8c6c(c9%19)c(c%11%12)c(c%14%15)c6c1%17)C%162C)C3%13C)C4%10C)C57C (stereo not shown) [C60Me5—(CH2)3CO2Et, 1-(3-(ethoxycarbonyl)propyl)-6,9,12,15,18-pentamethyl-1,6,9,12,15,18-hexahydro-(C60-Ih)[5,6]fullerene]",–,"Solubility in chloroform (CHCl3) ([1]; CHCl3, 25° C.): 35.9 mg/mL; Solubility in N,N-dimethylformamide (DMF) ([1]; DMF, 25° C.): 15.4 mg/mL; Solubility in ethyl acetate (EtOAc) ([1]; EtOAc, 25° C.): 3.9 mg/mL; Solubility in tetrahydrofuran (THF) ([1]; THF, 25° C.): 103.0 mg/mL"
98.8,98.4,98.9,98.4,98.7,98.5,98.3,98.9,98.4,98.4,97.1,97.4,98.3,"CC12C3=C4C5=C1C1(c6ccccc6)c6c7c8c9c(c%10c%11c%12c(c%13c%14c%15c(c%16c%17c%18c(c1c1c6c6c8c8c%19c9c%11c9c%11c%12c%14c%12c%14c%15c%17c%15c%17c%18c1c1c6c8c6c(c9%19)c(c%11%12)c(c%14%15)c6c1%17)C%162c1ccccc1)C3%13c1ccccc1)C4%10c1ccccc1)C57c1ccccc1 (stereo not shown) [Example C60Ph5Me, 1-methyl-6,9,12,15,18-pentaphenyl-1,6,9,12,15,18-hexahydro-(C60-Ih)[5,6]fullerene]",kept substantially unchanged,"Peak area ratio (%) ([2]; toluene solution in air, time 3 days): 98.8%; Peak area ratio (%) ([2]; toluene solution in air, time 7 days): 98.3%; Peak area ratio (%) ([2]; toluene solution in air, time 10 days): 98.0%; Peak area ratio (%) ([2]; toluene solution in air, time 21 days): 98.4%; Peak area ratio (%) ([2]; toluene solution in air, time 25 days): 98.5%; Peak area ratio (%) ([2]; toluene solution in air, time 31 days): 97.9%; Peak area ratio (%) ([2]; toluene solution in air, time 38 days): 98.2%; Peak area ratio (%) ([2]; toluene solution in air, time 48 days): 98.1%"
98.5,97.5,96.7,94.4,93.2,92.9,90.6,90.1,89.6,88.6,87.4,87.4,70.1,c1ccc(C23C4=C5C6C7=C4C4(c8ccccc8)c8c2c2c9c3c3c%10c%11c(c%12c%13c%14c(c%15c%16c%17c(c4c4c8c8c2c2c%18c9c%10c9c%10c%11c%13c%11c%13c%14c%16c%14c%16c%17c4c4c8c2c2c(c%189)c(c%10%11)c(c%14%13)c2c4%16)C7%15c2ccccc2)C%126c2ccccc2)C53c2ccccc2)cc1 (stereo not shown) [Example C60Ph5H],considerable reduction in peak area ratio,"Rate of reduction of the peak area ratio ([2]; toluene solution in air): about 0.45 % per day; Peak area ratio (%) ([2]; toluene solution in air, time 5 days): 95.0%; Peak area ratio (%) ([2]; toluene solution in air, time 12 days): 92.0%; Peak area ratio (%) ([2]; toluene solution in air, time 13 days): 91.7%; Peak area ratio (%) ([2]; toluene solution in air, time 26 days): 85.9%; Peak area ratio (%) ([2]; toluene solution in air, time 30 days): 84.3%; Peak area ratio (%) ([2]; toluene solution in air, time 33 days): 81.5%; Peak area ratio (%) ([2]; toluene solution in air, time 37 days): 80.4%; Peak area ratio (%) ([2]; toluene solution in air, time 43 days): 78.9%; Peak area ratio (%) ([2]; toluene solution in air, time 51 days): 74.1%; Peak area ratio (%) ([2]; toluene solution in air, time 58 days): 71.4%; Peak area ratio (%) ([2]; toluene solution in air, time 65 days): 70.1%"
